Measurements taken from patent US20110045101A1, “FUNGICIDAL SUBSTITUTED AZOLES” (E.I. Du Pont De Nemours and Company, priority 2009, published 2011).
Marks after values point to notes of the source that are not given here.

Columns and labels:
Type in all cases: in vivo
Septoria tritici = experiment: Test G: wheat leaf blotch on wheat seedlings, sprayed the day before inoculation, visual disease rating; settings: 100 = 100% disease control; for pest or weed control at 200 ppm: Zymoseptoria tritici, 504 h
In short: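 Wheat seedlings were sprayed to run-off with test suspension (acetone/water plus surfactant), generally 200 ppm (≈500 g/ha), or 40 ppm where marked. Septoria tritici spores were inoculated the next day; plants were held 48 h at 24°C in saturated atmosphere, then 19 days at 20°C before visual disease rating.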

[1] = system: Puccinia recondita f. sp. tritici; experiment: Test I: wheat leaf rust on wheat seedlings, sprayed the day before inoculation, visual disease rating; settings: 100 = 100% disease control; for pest or weed control at 200 ppm: Puccinia recondita, 168 h
In short: (§1)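 Compounds were dissolved in acetone (3% of final volume), then suspended in 50/50 acetone/water with 250 ppm Trem 014 surfactant and sprayed to run-off on test plants. A 200 ppm suspension equals 500 g/ha. Ratings are at 200 ppm unless flagged as 40 ppm.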

[2] = system: Erysiphe graminis f. sp. tritici; experiment: Test J: wheat powdery mildew on wheat seedlings, sprayed the day before inoculation, visual disease rating; settings: 100 = 100% disease control; for pest or weed control at 200 ppm: Blumeria graminis, 168 h
In short: as §1

[3] = system: Puccinia recondita f. sp. tritici; experiment: Test H: wheat leaf rust, test suspension sprayed after inoculation of wheat seedlings, visual disease rating; settings: 100 = 100% disease control; for pest or weed control at 200 ppm: Puccinia recondita, 96 h
From the text: General protocol for preparing test suspensions for Tests A-J: The test compounds were first dissolved in acetone in an amount equal to 3% of the final volume and then suspended at the desired concentration (in ppm) in acetone and purified water (50/50 mix) containing 250 ppm of the surfactant Trem® 014 (polyhydric alcohol esters). The resulting test suspensions were then used in tests A-J. Spraying a 200 ppm test suspension to the point of run-off on the test plants was the equivalent of a rate of 500 g/ha. […] Wheat seedlings were inoculated with a spore suspension of Puccinia recondita f. sp. tritici (the causal agent of wheat leaf rust) and incubated in a saturated atmosphere at 20° C. for 24 h, and then moved to a growth chamber at 20° C. for 2 days. […] A dash (-) indicates no test results. All results are for 200 ppm except where followed by “*”, which indicates 40 ppm.

Botrytis cinerea = experiment: Test C: tomato Botrytis on tomato seedlings, sprayed the day before inoculation, visual disease rating; settings: 100 = 100% disease control; for pest or weed control at 200 ppm: Botrytis cinerea, 120 h
In short: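 Tomato seedlings sprayed to run-off with compound suspended in acetone/water with 250 ppm Trem 014 surfactant, at 200 ppm (≈500 g/ha) or 40 ppm where marked, one day before Botrytis cinerea inoculation. Disease rated visually.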

Alternaria solani = experiment: Test D: tomato early blight, sprayed the day before inoculation, visual disease rating; settings: 100 = 100% disease control; for pest or weed control at 200 ppm: Alternaria solani, 168 h
In short: as §1

Septoria nodorum = experiment: Test F: wheat glume blotch on wheat seedlings, sprayed the day before inoculation, visual disease rating; settings: 100 = 100% disease control; for pest or weed control at 200 ppm: Parastagonospora nodorum, 264 h
In short: as §1

[4] = 200 ppm, 0 = no control relative to controls

| Compound | Test G disease control rating (Septoria tritici; [4]) [%] | Test I disease control rating [1, 4] [%] | Test J disease control rating [2, 4] [%] | Test H disease control rating [3, 4] [%] | Test C disease control rating (Botrytis cinerea; [4]) [%] | Test D disease control rating (Alternaria solani; [4]) [%] | Test F disease control rating (Septoria nodorum; [4]) [%] | other results |
| --- | --- | --- | --- | --- | --- | --- | --- | --- |
| Fc1cccc(F)c1-c1c(Br)nc(CCBr)n1-c1ccc(Cl)cc1 [Compound 475, 4-bromo-2-(bromoethyl)-1-(4-chlorophenyl)-5-(2,6-difluorophenyl)-1H-imidazole] |  |  |  |  |  |  |  | pest or weed control at 200 ppm (Septoria tritici; [4]): 92%; pest or weed control at 200 ppm [1, 4]: 87%; pest or weed control at 200 ppm [2, 4]: 42%; pest or weed control at 200 ppm [3, 4]: 0%; pest or weed control at 200 ppm (Botrytis cinerea; [4]): 98%; pest or weed control at 200 ppm (Alternaria solani; [4]): 26%; pest or weed control at 200 ppm (Septoria nodorum; [4]): 0% |
| CN(C)c1ccc(-n2cnc(N(C)C)c2-c2c(F)cccc2F)cc1 [compound 634] |  |  |  |  |  |  |  | Test G disease control rating (Septoria tritici; 40 ppm (marked *)): 0* %; Test I disease control rating ([1]; 40 ppm (marked *)): 0* %; Test J disease control rating ([2]; 40 ppm (marked *)): 0* %; Test H disease control rating ([3]; 40 ppm (marked *)): 0* %; Test C disease control rating (Botrytis cinerea; 40 ppm (marked *)): 0* %; Test D disease control rating (Alternaria solani; 40 ppm (marked *)): 0* %; Test F disease control rating (Septoria nodorum; 40 ppm (marked *)): 0* % |
| COc1cc(F)c(-c2c(Cl)nc(Br)n2Cc2ccc(Cl)nc2)c(F)c1 [compound 670] | 98 | 98 | 94 | 0 | 100 | 100 | 100 |  |
| Cc1nc(Br)n(-c2ccc(Cl)nc2)c1-c1c(F)cccc1F [compound 682] | 100 | 100 | 100 | 97 | 100 | 100 | 99 |  |
| Cc1nc(Cl)n(-c2ccc(F)cc2Cl)c1-c1ccc(Cl)cc1 [compound 503] | 96 | 100 | 100 | 0 | 99 | 99 | 99 |  |
| COc1cc(F)c(-c2c(Cl)nc(C=O)n2-c2ccc(F)cc2)c(F)c1 [Compound 276, 4-chloro-5-(2,6-difluoro-4-methoxyphenyl)-1-(4-fluorophenyl)-1H-imidazole-2-carboxaldehyde] |  |  |  |  |  |  |  | pest or weed control at 200 ppm (Septoria tritici; 200 ppm, 0 = no control): 92%; pest or weed control at 200 ppm ([1]; 200 ppm, 0 = no control): 98%; pest or weed control at 200 ppm ([2]; 200 ppm, 0 = no control): 100%; pest or weed control at 200 ppm ([3]; 200 ppm, 0 = no control): 9%; pest or weed control at 200 ppm (Botrytis cinerea; 200 ppm, 0 = no control): 100%; pest or weed control at 200 ppm (Alternaria solani; 200 ppm, 0 = no control): 100%; pest or weed control at 200 ppm (Septoria nodorum; 200 ppm, 0 = no control): 0% |
| COc1ccc(F)c(-c2c(Cl)nc(Cl)n2-c2ccc(C)c(F)c2)c1F [compound 561] | 100 | 100 | 100 | 9 | 99 | 100 | 97 |  |
| Fc1cccc(F)c1-c1c(Cl)nc(CCl)n1-c1ccc2c(c1)OCCO2 [compound 469] |  |  |  |  |  |  |  | Test G disease control rating (Septoria tritici; 40 ppm (marked *)): 79* %; Test I disease control rating ([1]; 40 ppm (marked *)): 81* %; Test J disease control rating ([2]; 40 ppm (marked *)): 0* %; Test H disease control rating ([3]; 40 ppm (marked *)): 0* %; Test C disease control rating (Botrytis cinerea; 40 ppm (marked *)): 65* %; Test D disease control rating (Alternaria solani; 40 ppm (marked *)): 0* %; Test F disease control rating (Septoria nodorum; 40 ppm (marked *)): 0* % |
| Fc1ccc(-n2c(Br)nc(Cl)c2-c2ccc(Cl)cc2)c(Cl)c1 [compound 329] | 94 | 90 | 99 | 0 | 99 | 99 | 0 |  |
| Cc1nc(Br)c(Cc2c(F)cc(F)cc2F)n1-c1cc(Cl)cc(Cl)c1 [compound 541] | 0 | 0 | 0 | 0 | 0 | 0 | 0 |  |
| COc1cc(F)c(-c2c(Cl)nc(Cl)n2-c2cccnc2C)c(F)c1 [compound 675] | 98 | 100 | 100 | 100 | 100 | 100 | 99 |  |
| COc1cc(F)c(-c2c(Br)nc(Br)n2-c2ccc(F)cc2)c(F)c1 [compound 523] |  |  |  |  |  |  |  | Test G disease control rating (Septoria tritici; 40 ppm (marked *)): 98* %; Test I disease control rating ([1]; 40 ppm (marked *)): 99* %; Test J disease control rating ([2]; 40 ppm (marked *)): 97* %; Test H disease control rating ([3]; 40 ppm (marked *)): 0* %; Test C disease control rating (Botrytis cinerea; 40 ppm (marked *)): 100* %; Test D disease control rating (Alternaria solani; 40 ppm (marked *)): 100* %; Test F disease control rating (Septoria nodorum; 40 ppm (marked *)): 0* % |
| Cc1nc(Cl)n(-c2ccc(Cl)c(F)c2)c1-c1cccnc1Cl [compound 360] | 95 | 99 | 98 | 9 | 100 | 99 | 0 |  |
| COc1cc(F)c(-c2c(Cl)nc(C)n2Cc2ccc(Cl)cc2)c(F)c1 [compound 287] |  |  |  |  |  |  |  | Test G disease control rating (Septoria tritici; 200 ppm, 0 = no control): 95%; Test I disease control rating ([1]; 200 ppm, 0 = no control): 100%; Test J disease control rating ([2]; 200 ppm, 0 = no control): 99%; Test H disease control rating ([3]; 200 ppm, 0 = no control): 17%; Test C disease control rating (Botrytis cinerea; 200 ppm, 0 = no control): 100%; Test D disease control rating (Alternaria solani; 200 ppm, 0 = no control): 100%; Test F disease control rating (Septoria nodorum; 200 ppm, 0 = no control): 99% |
| Cc1nc(Cl)n(-c2ccc(Cl)c(F)c2)c1-c1scnc1Cl [compound 380] | 91 | 99 | 99 | 0 | 100 | 91 | 0 |  |
| COc1cc(F)c(-c2c(Cl)nc(Cl)n2-c2cccnc2Br)c(F)c1 [compound 576] | 100 | 100 | 99 | 100 | 100 | 99 | 100 |  |
| COc1ccc(F)c(-c2c(Cl)nc(C)n2Cc2ccc(Cl)cc2)c1F [compound 294] |  |  |  |  |  |  |  | Test G disease control rating (Septoria tritici; 200 ppm, 0 = no control): 96%; Test I disease control rating ([1]; 200 ppm, 0 = no control): 98%; Test J disease control rating ([2]; 200 ppm, 0 = no control): 97%; Test H disease control rating ([3]; 200 ppm, 0 = no control): 11%; Test C disease control rating (Botrytis cinerea; 200 ppm, 0 = no control): 99%; Test D disease control rating (Alternaria solani; 200 ppm, 0 = no control): 100%; Test F disease control rating (Septoria nodorum; 200 ppm, 0 = no control): 98% |
| CN(C)c1c(Cl)cc(-n2cnc(Cl)c2-c2c(F)cccc2F)cc1Cl [compound 652] |  |  |  |  |  |  |  | Test G disease control rating (Septoria tritici; 40 ppm (marked *)): 0* %; Test I disease control rating ([1]; 40 ppm (marked *)): 0* %; Test J disease control rating ([2]; 40 ppm (marked *)): 0* %; Test H disease control rating ([3]; 40 ppm (marked *)): 6* %; Test C disease control rating (Botrytis cinerea; 40 ppm (marked *)): 0* %; Test D disease control rating (Alternaria solani; 40 ppm (marked *)): 0* %; Test F disease control rating (Septoria nodorum; 40 ppm (marked *)): 0* % |
| COc1cc(F)c(-c2c(Cl)ncn2-c2ccc(OC(F)F)cc2)c(F)c1 [compound 557] | 96 | 99 | 87 | 43 | 100 | 99 | 78 |  |
| Fc1cc(F)c(-c2c(Cl)nc(Cl)n2-c2ccc(OC(F)F)cc2)c(F)c1 [compound 598] | 99 | 100 | 100 | 99 | 100 | 100 | 100 |  |
